Here are results for 29 molecules from patent publication US10758534B2 (Vertex Pharmaceuticals Incorporated, priority 2014, dated 2020).

The assay has as its target T1, F508del (Homo sapiens, UniProt P13569, DEL508-508).
T1 construct: expressed in transfected cells
As to the kind of experiment: Protocol 2: FRET membrane potential optical assay (VIPR), identification of correction compounds. It counts as cell-based. In outline: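 Single-addition HTS format: F508del-expressing NIH3T3 cells pre-incubated 16 hrs at 37° C. ± compound, with 27° C. culture as positive control. Channel activation by forskolin 10 μM and genistein 20 μM upon switch to gluconate bath, pH 7.4; read-out is FRET-based depolarization signal.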

Where [1] appears, read: F508del CFTR modulator activity, compounds of Table 1, read-out: EC30.
The mark [2] stands for this setting: Table 3, compounds of Table 1 as modulators of CFTR activity, protocol not stated.

Like-named read-outs stand apart in the source and are kept apart here. Bounds are passed on as bounds.

T1 sequence (P13569 with tags, fused parts or gaps DEL508-508): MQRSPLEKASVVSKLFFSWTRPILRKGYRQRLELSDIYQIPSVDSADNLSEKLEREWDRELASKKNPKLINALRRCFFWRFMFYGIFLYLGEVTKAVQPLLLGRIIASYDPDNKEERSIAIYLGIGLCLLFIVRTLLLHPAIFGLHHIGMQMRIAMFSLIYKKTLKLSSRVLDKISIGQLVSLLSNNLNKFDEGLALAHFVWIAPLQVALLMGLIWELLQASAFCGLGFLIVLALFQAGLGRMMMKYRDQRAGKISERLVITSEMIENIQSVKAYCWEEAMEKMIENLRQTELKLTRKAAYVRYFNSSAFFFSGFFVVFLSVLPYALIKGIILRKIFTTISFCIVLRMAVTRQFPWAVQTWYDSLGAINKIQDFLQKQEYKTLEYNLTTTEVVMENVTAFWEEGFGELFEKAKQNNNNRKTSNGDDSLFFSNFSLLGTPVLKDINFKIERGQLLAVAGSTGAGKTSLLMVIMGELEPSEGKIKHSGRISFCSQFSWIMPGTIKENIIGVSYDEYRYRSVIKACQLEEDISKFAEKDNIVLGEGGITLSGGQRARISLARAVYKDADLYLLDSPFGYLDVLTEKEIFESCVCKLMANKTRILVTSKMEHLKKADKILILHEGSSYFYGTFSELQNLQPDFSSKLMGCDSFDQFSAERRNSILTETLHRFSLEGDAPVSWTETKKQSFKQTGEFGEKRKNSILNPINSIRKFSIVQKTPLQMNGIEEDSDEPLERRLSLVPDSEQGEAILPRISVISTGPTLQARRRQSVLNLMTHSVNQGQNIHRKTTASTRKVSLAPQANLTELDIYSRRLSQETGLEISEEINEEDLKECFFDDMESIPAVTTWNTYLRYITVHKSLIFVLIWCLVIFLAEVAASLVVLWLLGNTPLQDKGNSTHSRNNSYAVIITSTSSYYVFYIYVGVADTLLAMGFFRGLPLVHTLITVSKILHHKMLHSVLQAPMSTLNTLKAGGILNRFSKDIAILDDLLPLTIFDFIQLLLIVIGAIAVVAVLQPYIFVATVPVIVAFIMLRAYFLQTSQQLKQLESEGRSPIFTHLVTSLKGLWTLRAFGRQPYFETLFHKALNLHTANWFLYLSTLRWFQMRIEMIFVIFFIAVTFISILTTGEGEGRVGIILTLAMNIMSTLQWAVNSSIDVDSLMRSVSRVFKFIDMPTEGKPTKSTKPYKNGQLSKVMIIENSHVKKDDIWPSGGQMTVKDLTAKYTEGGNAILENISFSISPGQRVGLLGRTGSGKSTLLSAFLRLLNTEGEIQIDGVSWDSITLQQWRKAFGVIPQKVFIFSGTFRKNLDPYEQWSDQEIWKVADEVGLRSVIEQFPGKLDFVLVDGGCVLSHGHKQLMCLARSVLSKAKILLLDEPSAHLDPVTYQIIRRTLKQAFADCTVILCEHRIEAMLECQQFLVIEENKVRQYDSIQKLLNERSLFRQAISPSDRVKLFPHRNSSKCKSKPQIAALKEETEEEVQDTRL

Regarding `Cc1ccc2cc(C(=O)NS(=O)(=O)c3cccc(N)n3)c(N3C[C@@H](C)CC3(C)C)nc2c1` [Compound 2519, N-[(6-amino-2-pyridyl)sulfonyl]-7-methyl-2-[(4S)-2,2,4-trimethylpyrrolidin-1-yl]quinoline-3-carboxamide], the 30% effect concentration (EC30) (as a rule, the concentration needed for an effect of 30%) under setting [1] was less than 3000 nM.

On to `Cc1cc(C)c(Oc2nc(C)ccc2C(=O)NS(=O)(=O)c2cccc(NC3CC3)n2)c(C)c1` [Compound 594, N-[[6-(cyclopropylamino)-2-pyridyl]sulfonyl]-6-methyl-2-(2,4,6-trimethylphenoxy)pyridine-3-carboxamide], for which the EC30 entry under setting [2] is “++ (“++” means between 3 uM and 10 uM)”.

As to `CC1CN(c2ncccc2C(=O)NS(=O)(=O)c2cccc(OCc3ccc(-n4cccn4)cc3)n2)C(C)(C)C1` (centres unmarked) [Compound 2118, N—[[6-[(4-pyrazol-1-ylphenyl)methoxy]-2-pyridyl]sulfonyl]-2-(2,2,4-trimethylpyrrolidin-1-yl)pyridine-3-carboxamide], the EC30 under setting [1] is less than 3000 nM.

Regarding `Cc1cc(C)c(Oc2nc(C(C)(C)C)ccc2C(=O)NS(=O)(=O)c2cccnc2N)c(C)c1` [Compound 235, N-[(2-amino-3-pyridyl)sulfonyl]-6-tert-butyl-2-(2,4,6-trimethylphenoxy)pyridine-3-carboxamide], under setting [2], the EC30 result is given as “+++ (“+++” means <3 uM)”.

Regarding `CC(C)COc1ccnc(-c2ccc(C(=O)NS(=O)(=O)c3cccc(N)n3)c(N3[C@H](C)CC[C@@H]3C)n2)c1` [Compound 389, N-[(6-amino-2-pyridyl)sulfonyl]-2-[(2S,5R)-2,5-dimethylpyrrolidin-1-yl]-6-(4-isobutoxy-2-pyridyl)pyridine-3-carboxamide], the concentration for an effect of 30% (EC30) entry under setting [2] was “+++ (“+++” means <3 uM)”.

Turning to `Cc1cc(C)c(Cn2c(C(=O)NS(=O)(=O)c3ccncc3)cc3cc(C)ccc32)c(C)c1` [Compound 25, 5-methyl-N-(4-pyridylsulfonyl)-1-[(2,4,6-trimethylphenyl)methyl]indole-2-carboxamide], the EC30 entry under setting [2] is “++ (“++” means between 3 uM and 10 uM)”.

For `COc1cc(-c2ccc(C(=O)NS(=O)(=O)c3cccnc3N)c(N3C[C@@H](C)CC3(C)C)n2)cc(F)c1F` [Compound 1998, N-[(2-amino-3-pyridyl)sulfonyl]-6-(3,4-difluoro-5-methoxy-phenyl)-2-[(4S)-2,2,4-trimethylpyrrolidin-1-yl]pyridine-3-carboxamide], under setting [1], the EC30 is less than 3000 nM.

As to `C[C@@H]1CN(c2nc(C3CCOC3)ccc2C(=O)NS(=O)(=O)c2ccccc2)C(C)(C)C1` (stereo partly drawn) [Compound 2277, N-(benzenesulfonyl)-6-tetrahydrofuran-3-yl-2-[(4S)-2,2,4-trimethylpyrrolidin-1-yl]pyridine-3-carboxamide], the EC30 under setting [1] is less than 3000 nM.

As to `COc1ccc(-c2ccc(C(=O)NS(=O)(=O)c3cccc(N)n3)c(Oc3c(C)cc(C)cc3C)n2)c(OC)n1` [Compound 754, N-[(6-amino-2-pyridyl)sulfonyl]-6-(2,6-dimethoxy-3-pyridyl)-2-(2,4,6-trimethylphenoxy)pyridine-3-carboxamide], the EC30 result under setting [2] is listed as “+++ (“+++” means <3 uM)”.

Take `COc1cccc(F)c1-c1ccc(C(=O)NS(=O)(=O)c2cccnc2N)c(N2C[C@@H](C)CC2(C)C)n1` [Compound 2033, N-[(2-amino-3-pyridyl)sulfonyl]-6-(2-fluoro-6-methoxy-phenyl)-2-[(4S)-2,2,4-trimethylpyrrolidin-1-yl]pyridine-3-carboxamide]: the EC30 under setting [1] is less than 3000 nM.

On to `C[C@@H]1CN(c2nc(-n3cc(OCC(C)(C)C)cn3)ccc2C(=O)NS(=O)(=O)c2cccnc2N)C(C)(C)C1` [Compound 2406, N-[(2-amino-3-pyridyl)sulfonyl]-6-[4-(2,2-dimethylpropoxy)pyrazol-1-yl]-2-[(4S)-2,2,4-trimethylpyrrolidin-1-yl]pyridine-3-carboxamide], for which the concentration for an effect of 30% (EC30) under setting [1] was less than 3000 nM.

Turning to `Cc1cc(C)c(Cn2c(C(=O)NS(=O)(=O)c3cccc(N)c3)cc3cccnc32)c(C)c1` [Compound 184, N-(3-aminophenyl)sulfonyl-1-[(2,4,6-trimethylphenyl)methyl]pyrrolo[2,3-b]pyridine-2-carboxamide], the EC30 result under setting [2] is “++ (“++” means between 3 uM and 10 uM)”.

Regarding `Cc1cc(C)c(Cn2cc(C(C)(C)C)cc2C(=O)NS(=O)(=O)c2ccccc2)c(C)c1` [Compound 242, N-(benzenesulfonyl)-4-tert-butyl-1-[(2,4,6-trimethylphenyl)methyl]pyrrole-2-carboxamide], under setting [2], the EC30 result is reported as “+++ (“+++” means <3 uM)”.

For the molecule `CCCn1cc(-c2ccc(C(=O)NS(=O)(=O)c3cccc(N)n3)c(Oc3c(C)cc(C)cc3C)n2)cn1` [Compound 469, N-[(6-amino-2-pyridyl)sulfonyl]-6-(1-propylpyrazol-4-yl)-2-(2,4,6-trimethylphenoxy)pyridine-3-carboxamide], the EC30 result under setting [2] was “++ (“++” means between 3 uM and 10 uM)”.

Turning to `CC1CN(c2ncccc2C(=O)NS(=O)(=O)c2cccc(OCCc3ccccc3F)n2)C(C)(C)C1` (centres unmarked) [Compound 2625, N—[[6-[2-(2-fluorophenyl)ethoxy]-2-pyridyl]sulfonyl]-2-(2,2,4-trimethylpyrrolidin-1-yl)pyridine-3-carboxamide], the concentration for an effect of 30% (EC30) under setting [1] is less than 3000 nM.

`Cc1cc(C)c(CN2Cc3cccc(O)c3C2(C)C(=O)NS(=O)(=O)c2cccc(N)n2)c(C)c1` (centres unmarked) [Compound 394, N-[(6-amino-2-pyridyl)sulfonyl]-7-hydroxy-1-methyl-2-[(2,4,6-trimethylphenyl)methyl]isoindoline-1-carboxamide]: under setting [2], the EC30 entry is given as “+++ (“+++” means <3 uM)”.

Regarding `Cc1cc(C)c(Cn2nc(C3(C)CC3)cc2C(=O)NS(=O)(=O)c2cccc(N)c2)c(C)c1` [Compound 158, N-(3-aminophenyl)sulfonyl-5-(1-methylcyclopropyl)-2-[(2,4,6-trimethylphenyl)methyl]pyrazole-3-carboxamide], the 30% effect concentration (EC30) entry under setting [2] is “+++ (“+++” means <3 uM)”.

With `C[C@@H]1CN(c2nc(-c3ccccc3F)ccc2C(=O)NS(=O)(=O)c2ccc[nH]c2=O)C(C)(C)C1` [Compound 2542, 6-(2-fluorophenyl)-N-[(2-oxo-1H-pyridin-3-yl)sulfonyl]-2-[(4S)-2,2,4-trimethylpyrrolidin-1-yl]pyridine-3-carboxamide], the EC30 under setting [1] was less than 3000 nM.

Turning to `CC1CN(c2ncccc2C(=O)NS(=O)(=O)c2cccc(OCc3ccoc3)n2)C(C)(C)C1` (centres unmarked) [Compound 2507, N—[[6-(3-furylmethoxy)-2-pyridyl]sulfonyl]-2-(2,2,4-trimethylpyrrolidin-1-yl)pyridine-3-carboxamide], the EC30 under setting [1] was less than 3000 nM.

For the molecule `CC(C)COc1cc(F)cc(-c2ccc(C(=O)NS(=O)(=O)c3cccc(N)n3)c(N3CCC[C@@H]3c3ccccc3)n2)c1` [Compound 447, N-[(6-amino-2-pyridyl)sulfonyl]-6-(3-fluoro-5-isobutoxy-phenyl)-2-[(2R)-2-phenylpyrrolidin-1-yl]pyridine-3-carboxamide], the EC30 entry under setting [2] is listed as “+++ (“+++” means <3 uM)”.

`CCOc1cc(C)cc(-c2ccc(C(=O)NS(=O)(=O)c3cccc(N)n3)c(Oc3c(C)cc(C)cc3C)n2)n1` [Compound 2511, N-[(6-amino-2-pyridyl)sulfonyl]-6-(6-ethoxy-4-methyl-2-pyridyl)-2-(2,4,6-trimethylphenoxy)pyridine-3-carboxamide]: the EC30 under setting [1] was less than 3000 nM.

As for `CC(C)COc1cc(F)cc(-c2ccc(C(=O)NS(=O)(=O)c3cccc(N)n3)c(N3CCCC3(C)C)n2)c1` [Compound 361, N-[(6-amino-2-pyridyl)sulfonyl]-2-(2,2-dimethylpyrrolidin-1-yl)-6-(3-fluoro-5-isobutoxy-phenyl)pyridine-3-carboxamide], the concentration for an effect of 30% (EC30) result under setting [2] is recorded as “+++ (“+++” means <3 uM)”.

Consider `CC1CN(c2ncccc2C(=O)NS(=O)(=O)c2cccc(Nc3ccc(F)c(C#N)c3)n2)C(C)(C)C1` (centres unmarked) [Compound 2316, N—[[6-(3-cyano-4-fluoro-anilino)-2-pyridyl]sulfonyl]-2-(2,2,4-trimethylpyrrolidin-1-yl)pyridine-3-carboxamide], for which, under setting [1], the concentration for an effect of 30% (EC30) is less than 3000 nM.

`Cc1cc(C)c(CN2Cc3ccccc3C2C(=O)NS(=O)(=O)c2ccccn2)c(C)c1` (centres unmarked) [Compound 48, N-(2-pyridylsulfonyl)-2-[(2,4,6-trimethylphenyl)methyl]isoindoline-1-carboxamide]: under setting [2], the EC30 result was “++ (“++” means between 3 uM and 10 uM)”.

For `Cc1cc(C)c(Oc2nc(C(C)(C)C)ccc2C(=O)NS(=O)(=O)c2cccn(C)c2=O)c(C)c1` [Compound 667, 6-tert-butyl-N-[(1-methyl-2-oxo-3-pyridyl)sulfonyl]-2-(2,4,6-trimethylphenoxy)pyridine-3-carboxamide], the EC30 result under setting [2] was “+++ (“+++” means <3 uM)”.

Regarding `Cc1cc(C)c(Oc2nc(C(C)(C)C)ccc2C(=O)NS(=O)(=O)c2cccc(N)n2)c(C)c1` [Compound 228, N-[(6-amino-2-pyridyl)sulfonyl]-6-tert-butyl-2-(2,4,6-trimethylphenoxy)pyridine-3-carboxamide], under setting [2], the EC30 entry is reported as “+++ (“+++” means <3 uM)”.

As for `Cc1cccc(C)c1Cn1nc(-c2ccc(C(F)F)cc2)cc1C(=O)NS(=O)(=O)c1ccccc1` [Compound 119, N-(benzenesulfonyl)-5-[4-(difluoromethyl)phenyl]-2-[(2,6-dimethylphenyl)methyl]pyrazole-3-carboxamide], under setting [2], the EC30 result is on record as “+++ (“+++” means <3 uM)”.

For `CC(C)COc1cc(F)cc(-c2ccc(C(=O)NS(=O)(=O)c3cccc(N)n3)c(OC3CCCOC3)n2)c1` (centres unmarked) [Compound 706, N-[(6-amino-2-pyridyl)sulfonyl]-6-(3-fluoro-5-isobutoxy-phenyl)-2-tetrahydropyran-3-yloxy-pyridine-3-carboxamide], under setting [2], the 30% effect concentration (EC30) entry is on record as “+++ (“+++” means <3 uM)”.

Take `COc1cc2cc(C(=O)NS(=O)(=O)c3cccc(N)c3)n(Cc3c(C)cc(C)cc3C)c2cc1OC` [Compound 598, N-(3-aminophenyl)sulfonyl-5,6-dimethoxy-1-[(2,4,6-trimethylphenyl)methyl]indole-2-carboxamide]: the concentration for an effect of 30% (EC30) entry under setting [2] is “++ (“++” means between 3 uM and 10 uM)”.
